# Source: US7517654B2, “Peptide and a derivative thereof promoting cell adhesion and spreading” (Seoul National University Industry Foundation, priority 2004, dated 2009)
# Tests used:
# HOK-16B cells [1] = experiment: Cell adhesion assay on coated plates (crystal violet absorbance at 570 nm / cell counting); assay type: cell-based, human; details: 1 h; for cell adhesion activity of synthetic peptides / cell adhesion activity compared to the peptide P4 control: HOK-16B cells; for cell adhesion activity of synthetic peptides: plates coated with 10-50 μg/well peptide, serum-free medium; for cell adhesion activity compared to the peptide P4 control: 10 μg/well truncated or Ala-substituted peptide coating; for cell adhesion activity of rLG proteins: HOK-16B cells on rLG protein-coated plates, compared to BSA control
# Protocol: The cell adhesion assay was performed according to a method reported by Okazaki et al. (J. Biol. Chem., 277:37070, 2002). In detail, 24-well culture plates (Nunc, Roskilde, Denmark) were coated with various amounts of rLG proteins at 4° C. overnight. The peptides were also coated on plates by drying overnight. The substrate-coated on the plates were blocked by adding 1% heat-inactivated bovine serum albumin (BSA) in PBS for 1 h at 37° C. and washed twice with PBS. The cells in the Experimental Example 1, detached by 0.05% tyrpsin and 0.53 mM EDTA in PBS and resuspended in culture media, were added (1×10^5 cells/500 μl) to each plate and incubated for 1 h at 37° C. After incubation, unattached cells were removed by rinsing twice with PBS. The attached cells were fixed with 10% formalin in PBS for 15 min, rinsed twice with PBS, and stained with 0.5% crystal violet for 1 h. The plates were gently rinsed with DDW three times and lysed with 2% SDS for 5 min. Absorbance was measured at 570 nm in a Bio-Rad Model 550 microplate reader (BioRad).
# The cell adhesion and spreading activities on peptide-coated plates were examined using HOK-16B cells by the same method as Experimental Example 2. 24-well plates were coated with 10, 20, 30, 40 and 50 μg/well peptides P1 to P5, respectively. HOK-16B cells were added to peptide-coated plates and cultured for 1 h in serum-free medium for 1 hr. After the unbound cells were washed off, adherent cells were fixed and stained with crystal violet, and then the stained cells were analyzed. Absorbance was measured at 570 nm in a microplate reader. BSA and the rLG3 were used as negative control and positive control, respectively.
# It was observed that peptide P4 promotes strong cell adhesion and spreading activities and binds to integrin α3β1 in the Example 4. Therefore, to determine the biologically active core sequences in peptide P4, five synthetic peptides (P4 D-I to P4 D-V), which are C-terminal truncated peptides from the peptide P4, and six synthetic peptides (P4 D-N1 to P4 D-N6), which are N-terminal truncated peptides from the peptide P4 were prepared (FIG. 6A) and examined for HOK-16B cell adhesion and spreading activities on peptide-coated plates by the present inventors. 24-well plates were coated with 10 μg/well C-terminal truncated peptides or N-terminal truncated peptides, and HOK-16B cells were added to the plates, and then cultured in serum-free medium for 1 hr. After the unbound cells were washed off, the adherent cells were fixed to stain with crystal violet, and the stained cells were analyzed. Absorbance was measured at 570 nm in a microplate reader. Peptide P4 and BSA were used as the positive and negative controls, respectively.
# 24-well plates were coated with 10 μg/well peptides, and HOK-16B cells were added to the plates, and then cultured in serum-free medium for 1 hr. After the unbound cells were washed off, the adherent cells were fixed to stain with crystal violet, and the stained cells were analyzed. Peptide P4 and BSA were used as the positive and negative controls, respectively. The results were expressed as mean ±SD of the four independent experiments.
# HOK-16B cells [2] = experiment: Cell spreading activity assay on coated plates; assay type: cell-based, human; details: for cell spreading activity compared to the peptide P4 control: HOK-16B cells, 10 μg/well truncated or Ala-substituted peptide coating, 1 h; for cell spreading activity: HOK-16B cells on rLG protein- or peptide P1-P5-coated plates
# Protocol: To identify spreading cells, attached cells were fixed with 10% formalin in PBS for 15 min, rinsed twice with PBS, and stained with 0.005% crystal violet for 1 h. The plates were then gently rinsed with DDW. To ensure a representative count, each plate was divided into quarters, two fields per quarter were photographed using an Olympus BX51 microscope at 100× magnification. Cells that had adopted a flattened, polygonal shape, with filopodia-and lamellipodia-like extensions were considered to be spreading cells. In contrast, cells that resisted being washed and remained tethered to the plate surface were considered to be non-spreading cells.
# To examine the adhesion activity of peptide P4 in detail, the inventors examined whether the adherent cells were tethered to the substratum or spread over the substratum. The BSA and rLG3 were used as the negative control and positive control, respectively, the percentage of cells displaying a spreading morphology was quantified by dividing the number of spreading cells by the total number of bound cells.
Molecule,cell adhesion activity of synthetic peptides (HOK-16B cells [1]),cell spreading activity compared to the peptide P4 control (HOK-16B cells [2]),cell adhesion activity compared to the peptide P4 control (HOK-16B cells [1]),also measured
"peptide P1: 12-mer peptide, residues 1293-1304 of human laminin α3 chain SEQ ID NO: 2; control peptide (LTSNSLKRDVSL; listed as Homo sapiens)",no adhesion activity,,,
peptide P4 D-N2: peptide P4 with deletions of the N-terminal two Pro residues (FLMLLKGSTR),,showed a significantly lower cell adhesion and spreading activities,showed a significantly lower cell adhesion and spreading activities,
"P3: 12-mer peptide, residues 1305-1316 of SEQ ID NO: 2 (GGCSLNKPPFLM; listed as Homo sapiens)",no adhesion activity,,,
peptide P4-S1: peptide P4 in which the 8th Lys of SEQ ID NO: 1 is replaced by Ala (PPFLMLLAGSTR),,unaffected,unaffected,
peptide P4 D-I: peptide P4 with a deletion of the C-terminal Arg residue (PPFLMLLKGST),,,significantly lower cell adhesion activity than the peptide P4 control,
"peptide P5: 12-mer peptide, residues 1321-1332 of SEQ ID NO: 2 (STRFNKTKTFRI; listed as Homo sapiens)",very weak dose-dependent adhesion activity at concentrations ≧25 μg/well,,,
"P2: 12-mer peptide, residues 1297-1308 of SEQ ID NO: 2 (SLKRDVSLGGCS; listed as Homo sapiens)",no adhesion activity,,,
peptide P4 D-N1: peptide P4 with a deletion of one of the N-terminal two Pro residues (PFLMLLKGSTR),,did not show a significantly lower cell adhesion and spreading activities,did not show a significantly lower cell adhesion and spreading activities,
"rLG2: recombinant His6-tagged LG2 domain, residues 959-1148 of human laminin α3 chain (protein, listed as Homo sapiens, His6 tag, recombinant His6-tagged LG2 domain, residues 959-1148 of human laminin α3 chain) KTFNLNTTEVEPCRRRKEESDKNYFEGTGYARVPTQPHAPIPTFGQTIQTTVDRGLLFFAENGDRFISLNIEDGKLMVRYKLNSELPKERGVGDAINNGRDHSIQIKIGKLQKRMWINVDVQNTIIDGEVFDFSTYYLGGIPIAIRERFNISTPAFRGCMKNLKKTSGVVRLNDTVGVTKKCSEDWKLVR",,,,cell spreading activity (HOK-16B cells [2]): minimal cell spreading; cell adhesion activity of rLG proteins (HOK-16B cells [1]): marginal adhesion activity
"rLG1: recombinant His6-tagged LG1 domain, residues 782-978 of human laminin α3 chain, expressed in E. coli (protein, listed as Homo sapiens, His6 tag, recombinant His6-tagged LG1 domain, residues 782-978 of human laminin α3 chain, expressed in E. coli) RLPNDLEDLKGYTSLSLFLQRPNSRENGGTENMFVMYLGNKDASRDYIGMAVVDGQLTCVYNLGDREAELQVDQILTKSETKEAVMDRVKFQRIYQFARLNYTKGATSSKPETPGVYDMDGRNSNTLLNLDPENVVFYVGGYPPDFKLPSRLSFPPYKGCIELDDLNENVLSLYNFKKTFNLNTTEVEPCRRRKEES",,,,cell spreading activity (HOK-16B cells [2]): minimal cell spreading; cell adhesion activity of rLG proteins (HOK-16B cells [1]): marginal adhesion activity
